We go through two compounds from patent publication USRE47689E1, “Compounds for treating spinal muscular atrophy” (PTC Therapeutics, Inc., priority 2011, dated 2019).

Assay [1] deals with SMA Δ7 homozygous knockout mice. Description: Body weight of neonatal Δ7 SMA mice. It counts as in vivo, mouse. The settings on record: IP QD from PND 3, then orally BID until study end, compared to vehicle. On the procedure:
The change in body weight of neonatal SMA mice is used to determine whether treatment with a test compound improves body weight.
Protocol. SMA Δ7 homozygous knockout mice are dosed intraperitoneally (IP) with test compound or vehicle (100% DMSO) once per day (QD) from postnatal day (PND) 3 until the dose regimen is switched to an oral dose twice per day (BID) in 0.5% hydroxypropylmethyl cellulose (HPMC) with 0.1% Tween-80 at a dose 3.16-fold higher than the dose used for IP. Body weights of SMA Δ7 mice treated with test compound or vehicle and age matched heterozygous mice are recorded every day.

The test system of assay [2] is full length and Δ7 SMN2 mRNAs. Nature of the assay: SMN2 mRNA RT-qPCR splicing assay in animal tissues. Type of assay: in vivo, mouse. Conditions: C/C-allele SMA mice, brain and muscle, 10 mg/kg oral gavage twice per day for 10 days. The protocol: The reverse transcription-quantitative PCR-based (RT-qPCR) assay is used to quantify the levels of the full length and Δ7 SMN2 mRNAs in tissues from mice treated with test compound.
Protocol. C/C-allele SMA mice are treated by oral gavage two times per day for 10 days with test compounds resuspended in 0.5% HPMC and 0.1% Tween-80. Tissue samples were collected and snap frozen for RNA purification.
Tissue samples (20-40 mg) are homogenized in QIAzol Lysis Reagent for 2 minutes at 20 Hz in the TissueLyser II using one stainless steel bead. After addition of chloroform, the homogenate is separated into aqueous and organic phases by centrifugation. RNA partitioned to the upper, aqueous phase is extracted and ethanol is added to provide appropriate binding conditions. The sample is then applied to the RNeasy spin column from the RNeasy Mini Kit, where total RNA binds to the membrane. The RNA is eluted in RNase-free water then stored at −20° C. and subsequently analyzed using the TaqMan RT-qPCR on the 7900HT Thermocycler. Total RNA is diluted ten fold and 2.5 μL of the diluted sample is added to the TaqMan RT-qPCR mixture.
SMN2 spliced products are identified using the following primers and probes in Table 7. Primer SMN FL Forward B (SEQ ID NO. 7) hybridizes to a nucleotide sequence in exons 7 and 8, primer SMN Δ7 Forward B (SEQ ID NO. 8) hybridizes to a nucleotide sequence in exons 6 and 8, primer SMN Reverse B (SEQ ID NO. 9) hybridizes to a nucleotide sequence in exon 8, probe SMN Probe B (SEQ ID NO. 10) hybridizes to a nucleotide sequence in exon 8. These primers and probe hybridize to nucleotide sequences common to human SMN1 and SMN2 mRNAs. Since the SMA patient cells used in Example 5 contain only the SMN2 gene, RT-qPCR can quantify only SMN2 full-length and Δ7 mRNAs.
The SMN forward and reverse primers are used at final concentrations of 0.4 μM. The SMN probe is used at a final concentration of 0.15 μM. The SMN-GAPDH Mix (10 μL total volume) is prepared by combining 5 μL of 2×RT-PCR buffer, 0.4 μL of 25×RT-PCR enzyme mix, 0.5 μL of 20×GAPDH primer-probe mix, 1.505 μL of water, 2.5 μL of RNA solution, 0.04 μL of 100 μM forward primer, 0.04 μL of 100 μM reverse primer, and 0.015 μL of 100 μM SMN probe. […]
The increase of SMN2 FL and decrease in SMN2 Δ7 mRNAs relative to those in tissues from animals treated with vehicle control are determined from real-time PCR data using a modified ΔΔCt method (as described in Livak and Schmittgen, Methods, 2001, 25:402-8). The amplification efficiency E is calculated from the slope of the amplification curve for SMN2 FL, SMN2 Δ7, and GAPDH individually. The abundances of SMN2 FL, SMN2 Δ7, and GAPDH are then calculated as (1+E)^−Ct, where Ct is the threshold value for each amplicon. […]

For `CCN1CCN(c2ccc3cc(-c4cn5cc(C)nc(C)c5n4)c(=O)oc3c2)C[C@@H]1C` [Cpd 626, 3-(6,8-dimethylimidazo[1,2-a]pyrazin-2-yl)-7-[(3S)-4-ethyl-3-methylpiperazin-1-yl]-2H-chromen-2-one], in assay [1], the body weight entry was “improved compared to vehicle treated mice”. In assay [2], the “SMN2 FL mRNA relative to vehicle” value is on record as “substantially more SMN2 FL mRNA” and the “SMN2 Δ7 mRNA relative to vehicle” value was “less SMN2 Δ7 mRNA”.
On the same counts, the results for `CC(C)NCCc1ccc2cc(-c3nc4c(Cl)cccc4s3)c(=O)oc2c1` [Cpd 35, 3-(4-chloro-1,3-benzothiazol-2-yl)-7-[2-(propan-2-ylamino)ethyl]-2H-chromen-2-one] are “improved compared to vehicle treated mice”, “substantially more SMN2 FL mRNA” and “less SMN2 Δ7 mRNA”.
